Legend:
[1] = inactivation by thiols such as DTT or GST; type: in vitro ADME
plasma half-life = type: in vitro ADME
VEGFR2 = VEGFR2 (Homo sapiens, UniProt P35968); test: cellular inhibition of VEGFR2; type: cell-based; details: triplicate
Description: FIG. 21. […] Assays were performed in triplicate.
To gage the undiscriminate reactivity of these enone resorcylic acids with thiols, fluoroenone 2 and the parent analogue lacking the fluoride were treated with one equivalent of DTT (2 mM) as a prototypical thiol nucleophile in PBS (pH 7.4) containing 1% DMSO. […] With fluoroenone 1 and 2 in hand, we tested their efficacy against VEGF-R2 which was frequently found to be the most inhibited kinase in our profile of cis-enone resorcylic acid library (Dakas, P. Y., et al. (2007) Angew. Chem. Int. Ed. Engl. 46, 6899-902; Jogireddy, R., et al. (2009) Chem. Eur. J. 15, 11498-506) and KIT which represents a less inhibited kinase. […] Their cellular activity against VEGF-R2 did parallel the biochemical activity. […] During the course of our investigation, a similar modification was reported by researchers from Esai (Du, H., et al. (2009) Bioorg. Med. Chem. Lett. 19, 6196-9) however, their medicinal chemistry efforts focused the inhibition of inflammation related pathways (MEKs and their down-stream regulatory effect on cytokines) (Du, H., et al. (2009) Bioorg. Med. Chem. Lett. 19, 6196-9; Goto, M., et al. (2009) J. Pharmacol. Exp. Ther. 331, 485-95). […]

MEK = MEK (Homo sapiens, UniProt Q02750); details: reported values; read-out: MEK inhibition; cited from earlier work
Sequence of MEK (Q02750 whole entry): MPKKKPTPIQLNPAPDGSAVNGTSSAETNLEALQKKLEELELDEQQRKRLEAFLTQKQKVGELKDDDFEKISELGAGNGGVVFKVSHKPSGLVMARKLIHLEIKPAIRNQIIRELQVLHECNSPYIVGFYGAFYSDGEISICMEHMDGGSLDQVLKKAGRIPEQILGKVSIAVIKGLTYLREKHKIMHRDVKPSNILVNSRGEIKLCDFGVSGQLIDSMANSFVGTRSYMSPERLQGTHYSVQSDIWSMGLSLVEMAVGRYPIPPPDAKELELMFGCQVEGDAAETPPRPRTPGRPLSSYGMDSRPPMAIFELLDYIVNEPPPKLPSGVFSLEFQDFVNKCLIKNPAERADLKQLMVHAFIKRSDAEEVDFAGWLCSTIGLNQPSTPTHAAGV

ERK2 = ERK2 (Homo sapiens, UniProt P28482); details: Nakajima and Miyake; cited from earlier work
Sequence of ERK2 (P28482 whole entry, species assumed): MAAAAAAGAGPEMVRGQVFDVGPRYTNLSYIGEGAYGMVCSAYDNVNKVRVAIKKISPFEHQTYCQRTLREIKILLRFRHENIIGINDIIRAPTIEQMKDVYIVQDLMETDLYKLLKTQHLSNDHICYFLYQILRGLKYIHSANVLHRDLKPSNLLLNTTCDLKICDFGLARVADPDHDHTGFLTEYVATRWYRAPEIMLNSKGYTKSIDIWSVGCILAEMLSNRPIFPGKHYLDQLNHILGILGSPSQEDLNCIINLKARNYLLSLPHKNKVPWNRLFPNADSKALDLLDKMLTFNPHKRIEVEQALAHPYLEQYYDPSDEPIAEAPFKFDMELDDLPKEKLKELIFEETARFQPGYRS

[2] = in vivo; cited from earlier work

Sequence of VEGFR2 (P35968 20-1356, species assumed): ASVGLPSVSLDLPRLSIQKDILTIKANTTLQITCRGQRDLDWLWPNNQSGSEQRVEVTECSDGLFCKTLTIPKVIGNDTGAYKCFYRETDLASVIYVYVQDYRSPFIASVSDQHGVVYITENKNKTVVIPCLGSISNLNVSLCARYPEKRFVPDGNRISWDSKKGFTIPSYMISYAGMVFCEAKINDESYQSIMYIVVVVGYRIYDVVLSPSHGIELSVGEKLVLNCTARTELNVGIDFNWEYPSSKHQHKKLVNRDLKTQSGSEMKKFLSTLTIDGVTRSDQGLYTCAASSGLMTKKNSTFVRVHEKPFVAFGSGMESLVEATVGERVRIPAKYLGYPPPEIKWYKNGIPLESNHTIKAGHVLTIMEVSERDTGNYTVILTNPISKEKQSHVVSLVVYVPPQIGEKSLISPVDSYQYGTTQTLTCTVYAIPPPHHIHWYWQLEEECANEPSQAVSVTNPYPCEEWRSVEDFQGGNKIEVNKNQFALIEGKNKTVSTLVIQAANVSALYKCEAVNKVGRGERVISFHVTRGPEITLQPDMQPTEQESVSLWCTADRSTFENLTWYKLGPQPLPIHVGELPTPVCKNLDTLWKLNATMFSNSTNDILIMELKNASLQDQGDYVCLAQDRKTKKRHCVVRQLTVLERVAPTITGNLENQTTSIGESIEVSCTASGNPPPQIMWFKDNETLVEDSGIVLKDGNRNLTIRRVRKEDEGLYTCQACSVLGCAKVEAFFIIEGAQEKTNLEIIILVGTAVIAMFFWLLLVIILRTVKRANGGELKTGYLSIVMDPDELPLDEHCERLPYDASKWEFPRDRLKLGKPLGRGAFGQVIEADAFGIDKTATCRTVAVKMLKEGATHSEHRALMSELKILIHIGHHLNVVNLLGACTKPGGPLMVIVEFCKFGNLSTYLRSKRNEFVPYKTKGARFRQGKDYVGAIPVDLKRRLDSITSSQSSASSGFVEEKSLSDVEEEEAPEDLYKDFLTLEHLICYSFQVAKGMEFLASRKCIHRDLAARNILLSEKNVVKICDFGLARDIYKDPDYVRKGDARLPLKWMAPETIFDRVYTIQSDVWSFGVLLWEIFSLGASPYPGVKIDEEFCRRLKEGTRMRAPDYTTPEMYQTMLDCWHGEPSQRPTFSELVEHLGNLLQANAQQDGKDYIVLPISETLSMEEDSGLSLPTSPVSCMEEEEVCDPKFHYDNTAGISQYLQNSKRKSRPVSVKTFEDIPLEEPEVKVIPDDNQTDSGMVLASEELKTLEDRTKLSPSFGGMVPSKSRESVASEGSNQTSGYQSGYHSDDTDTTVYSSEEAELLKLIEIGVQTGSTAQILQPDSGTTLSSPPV

COc1cc(O)c2c(c1)/C=C/C[C@H](O)[C@H](O)C(=O)/C=C\C[C@H](C)OC2=O [LL-Z1640-2]
inactivation by thiols [1]: inactivated by thiols such as DTT or GST
plasma half-life (plasma half-life): short plasma half-life
IC50 (VEGFR2): 6.5 nM
IC50 (MEK): 411 nM
difference in activity between LL-Z1640-2 and L-783277 in inhibition of ERK2 (ERK2): 50 fold
efficacy in animal models [2]: effective in animal models
